From patent publication US20120202856A1, “SUBSTITUTED BENZIMDAZOLE DERIVATIVES USEFUL AS TRPM8 RECEPTOR MODULATORS” (priority 2011, published 2012)
Where “and” joins values, the source holds several entries; their conditions need not be identical. Identical values can stand only once. Counter-ions that a name gives are not always drawn. Like-named read-outs stand apart in the source and are kept apart here.

Molecular target: T1, canine TRPM8 (Canis lupus familiaris, UniProt Q1A7N1)
T1 construct: expressed in transfected cells
T1 sequence (Q1A7N1 1-1104): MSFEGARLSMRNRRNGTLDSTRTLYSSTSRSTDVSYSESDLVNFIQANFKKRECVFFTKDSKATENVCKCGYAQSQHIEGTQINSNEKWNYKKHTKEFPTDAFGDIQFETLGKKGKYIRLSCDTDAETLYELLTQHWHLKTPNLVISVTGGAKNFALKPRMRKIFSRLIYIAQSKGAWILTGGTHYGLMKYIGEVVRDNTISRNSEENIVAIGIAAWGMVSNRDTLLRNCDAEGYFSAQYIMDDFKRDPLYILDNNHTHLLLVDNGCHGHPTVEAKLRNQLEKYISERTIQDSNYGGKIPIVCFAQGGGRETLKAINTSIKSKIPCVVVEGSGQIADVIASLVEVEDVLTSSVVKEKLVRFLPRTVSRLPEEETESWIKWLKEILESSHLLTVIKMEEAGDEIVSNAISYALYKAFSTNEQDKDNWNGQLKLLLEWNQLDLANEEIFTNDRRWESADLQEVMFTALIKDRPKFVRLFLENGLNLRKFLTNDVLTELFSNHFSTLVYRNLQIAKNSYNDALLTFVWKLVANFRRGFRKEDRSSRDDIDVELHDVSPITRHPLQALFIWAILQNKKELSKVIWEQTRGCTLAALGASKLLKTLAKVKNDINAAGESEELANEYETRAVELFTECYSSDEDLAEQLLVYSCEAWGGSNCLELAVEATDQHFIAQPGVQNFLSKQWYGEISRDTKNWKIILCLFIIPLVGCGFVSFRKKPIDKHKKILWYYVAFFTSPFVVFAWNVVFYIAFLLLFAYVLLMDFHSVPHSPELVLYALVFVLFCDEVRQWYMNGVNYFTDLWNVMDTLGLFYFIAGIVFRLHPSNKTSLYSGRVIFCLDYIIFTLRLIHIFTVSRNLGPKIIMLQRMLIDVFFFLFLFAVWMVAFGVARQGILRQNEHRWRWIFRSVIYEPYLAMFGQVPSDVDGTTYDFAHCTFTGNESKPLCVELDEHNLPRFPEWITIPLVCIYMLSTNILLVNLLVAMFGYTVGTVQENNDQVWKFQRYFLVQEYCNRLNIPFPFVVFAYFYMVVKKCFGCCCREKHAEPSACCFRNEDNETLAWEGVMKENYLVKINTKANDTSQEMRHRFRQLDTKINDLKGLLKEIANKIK
Assay: In Vitro Canine TRPM8 Functional Assay (intracellular Ca2+ fluorescence, icilin activation, HEK293 cells)
Type: cell-based
Conditions: for inhibition at 0.2 µM: individually measured values; for IC50: HEK293 cells expressing canine TRPM8, icilin activation, individually measured values (batches/salt forms), read-out: IC50 (nM), in vitro TRP M8 Activity
How it was run: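 HEK293 cells expressing canine TRPM8 loaded with Calcium 3 dye, then stimulated with icilin; intracellular Ca2+ rise read on FLIPR or FDSS. Peak fluorescence minus basal normalized to percent maximal response; IC50 from sigmoidal nonlinear regression of quadruplicate wells.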

[1] = HEK293, 0.2 μM test compound, read-out: % Inh (%) @0.2 μM, in vitro TRP M8 Activity

Row | SMILES | inhibition at 0.2 µM [1] | IC50 | inhibition at 0.2 µM (HEK293, read-out: % Inh (%) @0.2 μM, in vitro TRP M8 Activity, 0.2 μM test compound)
1 | Cc1c(C(C)(C)C)nn(C)c1-c1nc2cc(-c3c(F)cccc3OC(F)(F)F)cc(Cl)c2[nH]1 [Compound 138, 2-(5-tert-Butyl-2,4-dimethyl-2H-pyrazol-3-yl)-7-chloro-5-(2-fluoro-6-trifluoromethoxy-phenyl)-1H-benzimidazole hydrochloride] | 99% | 7.7 nM and 6.8 nM | –
2 | Cn1nc2c(c1-c1nc3cc(-c4ccccc4F)ccc3[nH]1)CCC2(C)C [Compound 131] | 100% | 42 nM | –
3 | COc1cccc(OC)c1-c1ccc2[nH]c(-c3cc(C(C)(C)C)no3)nc2c1 [Compound 63, 2-(3-tert-Butyl-isoxazol-5-yl)-5-(2,6-dimethoxy-phenyl)-1H-benzimidazole trifluoroacetic acid salt] | – | 5.5 nM | –
4 | Cn1nc(C(C)(C)C)c(Cl)c1-c1nc2cc(-c3c(C(F)(F)F)cccc3C(F)(F)F)ccc2[nH]1 [Compound 87, 5-(2,6-Bis-trifluoromethyl-phenyl)-2-(5-tert-butyl-4-chloro-2-methyl-2H-pyrazol-3-yl)-1H-benzimidazole hydrochloride] | – | 5.7 nM and 8.6 nM | –
5 | Cc1nc(C(C)(C)C)oc1-c1nc2cc(-c3ccccc3F)cc(C(F)(F)F)c2[nH]1 [Compound 175, 2-(2-tert-Butyl-4-methyl-oxazol-5-yl)-5-(2-fluoro-phenyl)-7-trifluoromethyl-1H-benzimidazole hydrochloride] | 48% | – | –
6 | Cc1oc(-c2nc3cc(-c4ccccc4F)cc(C(F)(F)F)c3[nH]2)nc1C(C)(C)C [Compound 193, 2-(4-tert-Butyl-5-methyl-oxazol-2-yl)-5-(2-fluoro-phenyl)-7-trifluoromethyl-1H-benzimidazole hydrochloride] | 18% | – | –
7 | CC(C)(C)c1cc(-c2nc3cc(-c4ccccc4F)ccc3[nH]2)on1 [Compound 66, 2-(3-tert-Butyl-isoxazol-5-yl)-5-(2-fluoro-phenyl)-1H-benzimidazole trifluoroacetic acid salt] | – | 24 nM and 35.7 nM | –
8 | Cn1nc(C(C)(C)C)c(C(F)(F)F)c1-c1nc2cc(-c3ccccc3OC(F)(F)F)cc(C(F)(F)F)c2[nH]1 [Compound 188, 2-(5-tert-Butyl-2-methyl-4-trifluoromethyl-2H-pyrazol-3-yl)-5-(2-trifluoromethoxy-phenyl)-7-trifluoromethyl-1H-benzimidazole sodium salt] | 99% | 35 nM | –
9 | CC(C)(C)c1cc(-c2nc3cc(-c4ccccc4C#N)ccc3[nH]2)on1 [Compound 69, 2-[2-(3-tert-Butyl-isoxazol-5-yl)-1H-benzimidazol-5-yl]-benzonitrile trifluoroacetic acid salt] | – | 20.5 nM | –
10 | FC(F)(F)Oc1ccccc1-c1ccc2[nH]c(-c3cc(Cl)no3)nc2c1 [Compound 34, 2-(3-Chloroisoxazol-5-yl)-5-(2-trifluoromethoxyphenyl)-1H-benzimidazole sodium salt] | – | 72.9 nM | –
11 | CCC(CC)c1cc(-c2nc3ccc(-c4ccccc4C(F)(F)F)cc3[nH]2)on1 [Compound 26, 2-[3-(1-Ethylpropyl)-isoxazol-5-yl]-6-(2-trifluoromethylphenyl)-1H-benzimidazole hydrochloride] | – | 39 nM | –
12 | Cc1oc(C(C)(C)C)nc1-c1nc2cc(-c3ccccc3F)cc(Cl)c2[nH]1 [Compound 161, 2-(2-tert-Butyl-5-methyl-oxazol-4-yl)-7-chloro-5-(2-fluoro-phenyl)-1H-benzimidazole hydrochloride] | 36% | – | –
13 | Cc1nc(C(C)(C)C)oc1-c1nc2cc(-c3ccccc3Cl)cc(C(F)(F)F)c2[nH]1 [Compound 179, 2-(2-tert-Butyl-4-methyl-oxazol-5-yl)-5-(2-chloro-phenyl)-7-trifluoromethyl-1H-benzimidazole hydrochloride] | 18% | – | –
14 | Cc1oc(C(C)(C)C)nc1-c1nc2cc(-c3ccccc3OC(F)(F)F)cc(C(F)(F)F)c2[nH]1 [Compound 156, 2-(2-tert-Butyl-5-methyl-oxazol-4-yl)-5-(2-trifluoromethoxy-phenyl)-7-trifluoromethyl-1H-benzimidazole hydrochloride] | 58% | – | –
15 | Cc1oc(C(C)(C)C)nc1-c1nc2cc(-c3ccccc3OC(F)(F)F)cc(Cl)c2[nH]1 [Compound 159, 2-(2-tert-Butyl-5-methyl-oxazol-4-yl)-7-chloro-5-(2-trifluoromethoxy-phenyl)-1H-benzimidazole hydrochloride] | 19% | – | –
16 | Cc1nc(C(C)(C)C)oc1-c1nc2cc(-c3ccccc3)cc(C(F)(F)F)c2[nH]1 [Compound 178, 2-(2-tert-Butyl-4-methyl-oxazol-5-yl)-5-phenyl-7-trifluoromethyl-1H-benzimidazole hydrochloride] | 17% | – | –
17 | Cn1nc(C2CCC2)cc1-c1nc2cc(-c3ccccc3Cl)ccc2[nH]1 [Compound 39, 2-(5-Cyclobutyl-2-methyl-2H-pyrazol-3-yl)-5-(2-chlorophenyl)-1H-benzimidazole sodium salt] | – | 20 nM | –
18 | COc1ccccc1-c1ccc2[nH]c(-c3cc(C(C)(C)C)no3)nc2c1 [Compound 8, 2-(3-tert-Butylisoxazol-5-yl)-5-(2-methoxyphenyl)-1H-benzimidazole sodium salt] | – | 11.1 nM and 8 nM | –
19 | Cn1nc(C(C)(C)C)c(C#N)c1-c1nc2cc(-c3c(F)cccc3C(F)(F)F)cc(Cl)c2[nH]1 [Compound 172, 3-tert-Butyl-5-[7-chloro-5-(2-fluoro-6-trifluoromethyl-phenyl)-1H-benzimidazol-2-yl]-1-methyl-1H-pyrazole-4-carbonitrile sodium salt] | 100% | 8.7 nM | –
20 | CC(C)(C)c1cc(-c2nc3cc(-c4c(F)cccc4F)ccc3[nH]2)on1 [Compound 67, 2-(3-tert-Butyl-isoxazol-5-yl)-5-(2,6-difluoro-phenyl)-1H-benzimidazole trifluoroacetic acid salt] | – | 15.3 nM and 16.7 nM | –
21 | Cn1nc(C(C)(C)C)c(C#N)c1-c1nc2cc(-c3ccccc3F)cc(Cl)c2[nH]1 [Compound 167, 3-tert-Butyl-5-[7-chloro-5-(2-fluoro-phenyl)-1H-benzimidazol-2-yl]-1-methyl-1H-pyrazole-4-carbonitrile sodium salt] | 100% | 9.8 nM | –
22 | CC(C)(C)Cc1cc(-c2nc3ccc(-c4ccccc4OC(F)(F)F)cc3[nH]2)on1 [Compound 21, 2-[3-(2,2-Dimethylpropyl)-isoxazol-5-yl]-6-(2-trifluoromethoxyphenyl)-1H-benzimidazole hydrochloride] | – | 29 nM | –
23 | Cn1nc(C(C)(C)C)cc1-c1nc2cc(-c3ccccc3OC(F)(F)F)ccc2[nH]1 [Compound 14, 2-(5-tert-Butyl-2-methyl-2H-pyrazol-3-yl)-5-(2-trifluoromethoxyphenyl)-1H-benzimidazole sodium salt] | – | 44 nM | –
24 | CC(C)(C)c1cc(-c2nc3cc(-c4c(F)cccc4OC(F)(F)F)cc(C(F)(F)F)c3[nH]2)on1 [Compound 145, 2-(3-tert-Butyl-isoxazol-5-yl)-5-(2-fluoro-6-trifluoromethoxy-phenyl)-7-trifluoromethyl-1H-benzimidazole sodium salt] | – | 3.7 nM and 8.1 nM | 100%
25 | CC(C)n1nc(C(C)(C)C)cc1-c1nc2cc(-c3ccccc3OC(F)(F)F)ccc2[nH]1 [Compound 47, 2-(5-tert-Butyl-2-isopropyl-2H-pyrazol-3-yl)-5-(2-trifluoromethoxyphenyl)-1H-benzimidazole sodium salt] | – | 49.6 nM | –
